Source: US11780830B2, “Triazolone derivatives or salts thereof and pharmaceutical compositions comprising the same” (YUHAN CORPORATION, priority 2018, dated 2023)
Structures can show the parent of a compound that is named as a salt.

Tests used:
Type in all cases: biochemical
recombinant human VAP-1 = biological target: T1, recombinant human VAP-1 (Homo sapiens, UniProt Q16853); experiment: Activity on recombinant human VAP-1, HRP-coupled Amplex Red hydrogen peroxide assay; conditions: substrate 1 mM benzylamine; compound incubated with enzyme at 37° C. for 30 minutes; pH 7.4; read-out: Inhibitory Activity (IC50, nM) human VAP-1
T1 construct: purchased R&D systems
T1 sequence (Q16853 1-763): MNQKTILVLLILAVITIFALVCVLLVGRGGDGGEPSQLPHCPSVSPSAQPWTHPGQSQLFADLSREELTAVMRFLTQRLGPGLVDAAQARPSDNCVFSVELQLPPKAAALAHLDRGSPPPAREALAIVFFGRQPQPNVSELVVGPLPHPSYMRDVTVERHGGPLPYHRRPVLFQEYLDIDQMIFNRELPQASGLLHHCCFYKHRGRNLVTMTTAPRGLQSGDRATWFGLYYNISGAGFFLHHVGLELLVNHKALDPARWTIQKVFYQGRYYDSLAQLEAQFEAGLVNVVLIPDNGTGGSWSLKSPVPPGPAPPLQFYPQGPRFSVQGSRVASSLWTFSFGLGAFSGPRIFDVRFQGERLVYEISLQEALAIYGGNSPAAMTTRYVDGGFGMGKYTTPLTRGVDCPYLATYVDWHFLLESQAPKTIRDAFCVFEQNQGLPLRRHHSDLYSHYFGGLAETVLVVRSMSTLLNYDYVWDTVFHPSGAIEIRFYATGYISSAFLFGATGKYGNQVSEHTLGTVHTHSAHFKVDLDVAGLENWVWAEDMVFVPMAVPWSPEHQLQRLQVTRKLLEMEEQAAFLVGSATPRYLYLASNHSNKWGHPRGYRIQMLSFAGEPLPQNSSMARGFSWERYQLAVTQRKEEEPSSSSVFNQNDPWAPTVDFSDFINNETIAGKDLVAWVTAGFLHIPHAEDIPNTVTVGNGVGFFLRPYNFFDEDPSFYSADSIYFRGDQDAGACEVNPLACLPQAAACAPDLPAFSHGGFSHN
How it was run: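 Dose-response IC50 determined from reduction in resorufin signal rate (544/590 nm, 1-2 h), with 30 min compound preincubation at 37 °C and 1 mM benzylamine as substrate.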

[1] = biological target: T2, recombinant human MAO-A (monoamine oxidase-A) (Homo sapiens, UniProt P21397); experiment: Activity on recombinant human MAO-A, method similar to the VAP-1 assay; conditions: substrate 0.5 mM tyramine; read-out: Inhibitory Activity (IC50, nM) MAO-A
T2 construct: purchased Sigma-Aldrich
T2 sequence (P21397 1-527): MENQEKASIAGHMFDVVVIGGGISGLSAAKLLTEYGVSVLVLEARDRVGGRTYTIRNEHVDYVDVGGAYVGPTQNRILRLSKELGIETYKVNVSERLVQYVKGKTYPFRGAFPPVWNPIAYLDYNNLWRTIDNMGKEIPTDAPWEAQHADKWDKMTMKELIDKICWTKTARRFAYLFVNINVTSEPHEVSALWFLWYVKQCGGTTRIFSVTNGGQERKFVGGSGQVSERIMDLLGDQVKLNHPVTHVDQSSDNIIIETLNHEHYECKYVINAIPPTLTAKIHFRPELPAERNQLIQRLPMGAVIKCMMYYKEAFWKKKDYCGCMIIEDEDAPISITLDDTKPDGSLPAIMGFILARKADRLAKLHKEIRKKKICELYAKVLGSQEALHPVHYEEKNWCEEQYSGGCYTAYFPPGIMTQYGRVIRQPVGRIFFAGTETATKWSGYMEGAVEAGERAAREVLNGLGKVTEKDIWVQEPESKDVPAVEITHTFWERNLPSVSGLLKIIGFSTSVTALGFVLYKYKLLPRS
How it was run: (§1)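 Amplex Red/HRP coupled read-out of H2O2 with 0.5 mM tyramine for MAO-A or 1 mM benzylamine for MAO-B, following a 30-min compound–enzyme preincubation at 37° C. IC50 from percent inhibition of signal rate relative to uninhibited control.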

[2] = biological target: T3, recombinant human MAO-B (monoamine oxidase-B) (Homo sapiens, UniProt P27338); experiment: Activity on recombinant human MAO-B, method similar to the VAP-1 assay; conditions: substrate 1 mM benzylamine; read-out: Inhibitory Activity (IC50, nM) MAO-B
T3 construct: purchased Sigma-Aldrich
T3 sequence (P27338 1-520): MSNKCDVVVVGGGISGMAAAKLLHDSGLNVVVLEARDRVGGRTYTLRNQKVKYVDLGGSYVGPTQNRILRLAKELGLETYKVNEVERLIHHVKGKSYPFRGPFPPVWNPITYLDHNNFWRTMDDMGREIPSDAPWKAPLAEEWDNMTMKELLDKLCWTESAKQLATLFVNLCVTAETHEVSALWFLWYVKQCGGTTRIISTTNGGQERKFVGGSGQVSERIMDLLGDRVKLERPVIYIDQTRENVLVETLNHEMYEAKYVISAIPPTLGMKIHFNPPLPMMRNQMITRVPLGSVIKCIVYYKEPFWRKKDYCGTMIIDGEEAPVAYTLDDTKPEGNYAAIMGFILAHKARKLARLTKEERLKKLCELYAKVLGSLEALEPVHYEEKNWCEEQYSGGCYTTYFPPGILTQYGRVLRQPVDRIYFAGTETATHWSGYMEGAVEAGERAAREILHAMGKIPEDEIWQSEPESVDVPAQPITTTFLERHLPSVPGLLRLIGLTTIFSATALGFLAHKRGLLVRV
How it was run: as §1

[3] = biological target: T4, recombinant human DAO (diamine oxidase) (Homo sapiens, UniProt P19801); experiment: Activity on recombinant human DAO, method similar to the VAP-1 assay; conditions: substrate 1 mM putrescine; read-out: Inhibitory Activity (IC50, nM) DAO
T4 construct: purchased R&D systems
T4 sequence (P19801 20-751): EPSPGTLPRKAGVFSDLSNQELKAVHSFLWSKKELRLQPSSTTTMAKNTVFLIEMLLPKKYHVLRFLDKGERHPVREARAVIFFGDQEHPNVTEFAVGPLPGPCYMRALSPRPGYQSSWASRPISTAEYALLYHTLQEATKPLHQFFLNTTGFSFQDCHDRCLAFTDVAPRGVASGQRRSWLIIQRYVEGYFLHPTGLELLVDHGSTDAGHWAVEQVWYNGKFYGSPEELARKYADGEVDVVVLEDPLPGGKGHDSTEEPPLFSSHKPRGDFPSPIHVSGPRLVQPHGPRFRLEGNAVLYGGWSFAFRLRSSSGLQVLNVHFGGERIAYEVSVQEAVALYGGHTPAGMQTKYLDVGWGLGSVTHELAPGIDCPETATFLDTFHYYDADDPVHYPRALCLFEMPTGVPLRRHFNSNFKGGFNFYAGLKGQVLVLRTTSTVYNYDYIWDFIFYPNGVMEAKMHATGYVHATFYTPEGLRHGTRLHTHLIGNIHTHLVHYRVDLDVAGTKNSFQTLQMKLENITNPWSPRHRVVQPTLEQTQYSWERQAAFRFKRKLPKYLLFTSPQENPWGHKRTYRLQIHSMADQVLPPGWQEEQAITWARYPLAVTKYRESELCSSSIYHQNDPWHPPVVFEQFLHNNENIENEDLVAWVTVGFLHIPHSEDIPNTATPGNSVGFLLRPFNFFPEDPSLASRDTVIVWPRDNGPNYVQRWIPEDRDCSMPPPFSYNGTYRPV
How it was run: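 Inhibition of recombinant human diamine oxidase (DAO, R&D systems) was assessed by the same approach as the VAP-1 assay, using 1 mM putrescine as substrate. Hydrogen peroxide formed was detected through an HRP-coupled Amplex Red reaction yielding fluorescent resorufin, read at 544 nm excitation and 590 nm emission. IC50 values came from four-parameter logistic fitting in GraphPad Prism.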

Row | Compound | IC50 (recombinant human VAP-1) [nM] | IC50 [1] [nM] | IC50 [2] [nM] | IC50 [3] [nM]
1 | NC/C(=C/F)Cn1ncn(Cc2ccc(-c3ccc4c(c3)OCO4)s2)c1=O [Example 60, 2-[(2Z)-2-(aminomethyl)-3-fluoroprop-2-en-1-yl]-4-[5-(1,3-benzodioxol-5-yl)thiophen-2-yl]methyl-2,4-dihydro-3H-1,2,4-triazol-3-one hydrochloride] | 1.8 | > 10000 | < 100 | 3000
2 | NC/C(=C/F)Cn1ncn(Cc2ccc(-c3ccc4nonc4c3)s2)c1=O [Example 61, 2-[(2Z)-2-(aminomethyl)-3-fluoroprop-2-en-1-yl]-4-[5-(2,1,3-benzooxadiazol-5-yl)thiophen-2-yl]methyl-2,4-dihydro-3H-1,2,4-triazol-3-one hydrochloride] | 1.1 | 16000 | 10.1 | < 100
3 | NC/C(=C\F)Cn1ncn(Cc2ccc(-c3ccc4ocnc4c3)s2)c1=O [Example 62, 2-[(2E)-2-(aminomethyl)-3-fluoroprop-2-en-1-yl]-4-[5-(1,3-benzooxazol-5-yl)thiophen-2-yl]methyl-2,4-dihydro-3H-1,2,4-triazol-3-one hydrochloride] | 3.7 | 2100 | 310 | 530
4 | NC/C(=C\F)Cn1ncn(Cc2ccc(-c3ccc4[nH]ncc4c3)s2)c1=O [Example 63, 2-[(2E)-2-(aminomethyl)-3-fluoroprop-2-en-1-yl]-4-[5-(1H-indazol-5-yl)thiophen-2-yl]methyl-2,4-dihydro-3H-1,2,4-triazol-3-one hydrochloride] | 0.9 | 67000 | 380 | 1200
5 | NC/C(=C\F)Cn1ncn(Cc2ccc(-c3cnc4scnc4c3)s2)c1=O [Example 64, 2-[(2E)-2-(aminomethyl)-3-fluoroprop-2-en-1-yl]-4-[5-([1,3]thiazolo[5,4-b]pyridin-6-yl)thiophen-2-yl]methyl-2,4-dihydro-3H-1,2,4-triazol-3-one hydrochloride] | 0.7 | 6700 | 2200 | 110
6 | NC/C(=C\F)Cn1ncn(Cc2ccc(-c3cnc4[nH]ccc4c3)s2)c1=O [Example 65, 2-[(2E)-2-(aminomethyl)-3-fluoroprop-2-en-1-yl]-4-[5-(1H-pyrrolo[2,3-b]pyridin-5-yl)thiophen-2-yl]methyl-2,4-dihydro-3H-1,2,4-triazol-3-one hydrochloride] | 0.7 | > 100000 | 3400 | 1500
7 | NC/C(=C\F)Cn1ncn(Cc2ccc(-c3ccn4ncnc4c3)s2)c1=O [Example 66, 2-[(2E)-2-(aminomethyl)-3-fluoroprop-2-en-1-yl]-4-[5-([1,2,4]triazolo[1,5-a]pyridin-7-yl)thiophen-2-yl]methyl-2,4-dihydro-3H-1,2,4-triazol-3-one hydrochloride] | 0.5 | > 10000 | 1200 | 340
8 | NC/C(=C\F)Cn1ncn(Cc2ccc(-c3ccc4c(c3)C(=O)NC4)s2)c1=O [Example 67, 6-[5-(1-[(2E)-2-(aminomethyl)-3-fluoroprop-2-en-1-yl]-5-oxo-1,5-dihydro-4H-1,2,4-triazol-4-ylmethyl)thiophen-2-yl]-2,3-dihydro-1H-isoindol-1-one hydrochloride] | 0.3 | > 100000 | 11000 | 1200
9 | NC/C(=C\F)Cn1ncn(Cc2ccc(-c3ccc4c(c3)CNC4=O)s2)c1=O [Example 68, 5-[5-(1-[(2E)-2-(aminomethyl)-3-fluoroprop-2-en-1-yl]-5-oxo-1,5-dihydro-4H-1,2,4-triazol-4-ylmethyl)thiophen-2-yl]-2,3-dihydro-1H-isoindol-1-one hydrochloride] | 0.4 | > 100000 | 1600 | 1000
10 | NC/C(=C\F)Cn1ncn(Cc2ccc(-c3ccc4c(c3)CC(=O)N4)s2)c1=O [Example 69, 5-[5-(1-[(2E)-2-(aminomethyl)-3-fluoroprop-2-en-1-yl]-5-oxo-1,5-dihydro-4H-1,2,4-triazol-4-ylmethyl)thiophen-2-yl]-1,3-dihydro-2H-indol-2-one hydrochloride] | 0.1 | 70000 | 1800 | 1100
11 | NC/C(=C\F)Cn1ncn(Cc2ccc(-c3cc(F)c4c(c3)CNC4=O)s2)c1=O [Example 70, hydrochloride] | 0.1 | > 100000 | 2800 | 289
12 | NC/C(=C\F)Cn1ncn(Cc2ccc(-c3cc(F)c4c(c3)CC(=O)N4)s2)c1=O [Example 71, 5-[5-[[1-[(E)-2-(aminomethyl)-3-fluoro-allyl]-5-oxo-1,2,4-triazol-4-yl]methyl]-2-thienyl]-7-fluoro-indolin-2-one hydrochloride] | 0.2 | > 100000 | > 10000 | 530
